Consider 28 molecules from US20100120858A1, “Piperidine Derivatives” (Pfizer Inc., priority 2006, published 2010).

The target in assay [1] is human norepinephrine transporter (Homo sapiens, UniProt P23975). Description: Human norepinephrine (hNET) receptor binding, [125I]-RTI-55. To be noted: membranes of HEK-293 cells transfected with human norepinephrine transporter cDNA; 50 pM [125I]-RTI-55; IC50 converted by Cheng-Prusoff. The method, then: Cell pastes of human embryonic kidney 293 (HEK-293) cells transfected with a human norepinephrine transporter cDNA were prepared. The cell pastes were resuspended in 400 to 700 mL of Krebs-N-2-hydroxyethylpiperazine-N′-2-ethanesulfonic acid (HEPES) assay buffer (25 mM HEPES, 122 mM NaCl, 3 mM KCl, 1.2 mM MgSO4, 1.3 mM CaCl2, and 11 mM glucose, pH 7.4) with a Polytron homogenizer at setting 7 for 30 seconds. Aliquots of membranes (5 mg/mL protein) were stored in liquid nitrogen until used.
human norepinephrine transporter, sequence (P23975 whole entry): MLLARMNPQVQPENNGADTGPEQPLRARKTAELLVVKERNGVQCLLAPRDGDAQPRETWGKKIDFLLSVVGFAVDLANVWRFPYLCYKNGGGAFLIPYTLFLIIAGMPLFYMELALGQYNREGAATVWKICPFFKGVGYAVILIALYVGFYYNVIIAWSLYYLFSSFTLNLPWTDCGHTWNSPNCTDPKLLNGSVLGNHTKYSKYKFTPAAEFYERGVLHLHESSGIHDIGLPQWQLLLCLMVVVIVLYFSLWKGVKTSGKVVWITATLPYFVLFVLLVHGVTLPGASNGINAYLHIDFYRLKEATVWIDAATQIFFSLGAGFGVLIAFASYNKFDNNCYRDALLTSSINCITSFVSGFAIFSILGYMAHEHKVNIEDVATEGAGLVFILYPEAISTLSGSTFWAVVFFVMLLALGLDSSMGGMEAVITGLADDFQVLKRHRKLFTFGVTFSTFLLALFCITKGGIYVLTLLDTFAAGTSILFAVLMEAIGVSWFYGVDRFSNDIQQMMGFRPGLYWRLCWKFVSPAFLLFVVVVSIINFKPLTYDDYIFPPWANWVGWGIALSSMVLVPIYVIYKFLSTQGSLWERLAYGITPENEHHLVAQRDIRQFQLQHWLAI
The binding assay was set up in Beckman deep-well polypropylene plates with a total volume of 250 μL containing: test compound (concentration of 10^−5M to 10^−12M), cell membranes, and 50 pM [^125I]-RTI-55 ([^125I]-3 beta-(4-iodophenyl)tropan-2 beta-carboxylic acid methyl ester) (Perkin Elmer, NEX-272; specific activity 2200 Ci/mmol). The reaction was incubated by gentle agitation for 90 minutes at room temperature and was terminated by filtration through Whatman GF/C filter plates using a Brandel 96-well plate harvester. Scintillation fluid (100 μL) was added to each well, and bound [^125I]-RTI-55 was determined using a Wallac Trilux Beta Plate Counter. Test compounds were run in duplicate, and specific binding was defined as the difference between binding in the presence and absence of 10 μM desipramine.
Excel and GraphPad Prism software were used for data calculation and analysis. IC50 values were converted to Ki values using the Cheng-Prusoff equation. The Ki values (nM) for the hNET are reported below in Table 13.

The target in assay [2] is human serotonin transporter (Homo sapiens, UniProt P31645). Description: Human serotonin (hSERT) receptor binding, [125I]-RTI-55. To be noted: membranes of HEK-293 cells transfected with human serotonin transporter cDNA, IC50 converted by Cheng-Prusoff. How it is done:
Cell pastes of HEK-293 cells transfected with a human serotonin transporter cDNA were prepared. The cell pastes were resuspended in 400 to 700 ml of Krebs-HEPES assay buffer (25 mM HEPES, 122 mM NaCl, 3 mM KCl, 1.2 mM MgSO4, 1.3 mM CaCl2, and 11 mM glucose, pH 7.4) with a Polytron homogenizer at Setting 7 for 30 seconds. Aliquots of membranes (˜2.5 mg/mL protein) were stored in liquid nitrogen until used.
Assays were set up in FlashPlates pre-coated with 0.1% polyethyleneimine (PEI) in a total volume of 250 μL containing: test compound (concentration 10^−5M to 10^−12M), cell membranes, and […] [^125I]-RTI-55 (Perkin Elmer, NEX-272; specific activity 2200 Ci/mmol). The reaction was incubated and gently agitated for 90 minutes at room temperature, and terminated by removal of assay volume. Plates were covered, and bound [^125I]-RTI-55 was determined using a Wallac Trilux Beta Plate Counter. Test compounds were run in duplicate, and specific binding was defined as the difference between binding in the presence and absence of 10 μM citalopram.
Excel and GraphPad Prism software were used for data calculation and analysis. IC50 values were converted to Ki values using the Cheng-Prusoff equation.

Structures can show the parent of a compound that is named as a salt.

human serotonin transporter, sequence (P31645 whole entry): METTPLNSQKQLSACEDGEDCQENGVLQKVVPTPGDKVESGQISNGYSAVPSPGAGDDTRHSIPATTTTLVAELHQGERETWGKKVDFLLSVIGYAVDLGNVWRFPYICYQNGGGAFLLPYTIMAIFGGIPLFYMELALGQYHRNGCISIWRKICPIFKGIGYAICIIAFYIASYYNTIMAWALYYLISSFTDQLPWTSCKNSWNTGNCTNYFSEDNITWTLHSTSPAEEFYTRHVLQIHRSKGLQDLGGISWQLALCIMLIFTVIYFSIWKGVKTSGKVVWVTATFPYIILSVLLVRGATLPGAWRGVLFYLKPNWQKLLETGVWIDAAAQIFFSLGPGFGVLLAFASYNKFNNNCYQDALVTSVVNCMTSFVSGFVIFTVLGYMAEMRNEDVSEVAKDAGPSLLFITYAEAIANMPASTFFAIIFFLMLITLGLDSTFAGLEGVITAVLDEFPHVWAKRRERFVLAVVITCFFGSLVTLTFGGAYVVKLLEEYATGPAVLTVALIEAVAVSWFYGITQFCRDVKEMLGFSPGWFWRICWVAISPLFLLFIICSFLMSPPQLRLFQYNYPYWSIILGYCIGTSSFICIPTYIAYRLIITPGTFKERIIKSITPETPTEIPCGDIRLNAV

A word on the Ki: it is the equilibrium dissociation constant of an inhibitor or competing ligand from its target. Low readings indicate a stronger hold on the target, high ones a looser hold on the target. Regarding `CC(C)Oc1ncccc1OC[C@H]1CCCNC1` [Example 80, (S)-2-isopropoxy-3-(piperidin-3-ylmethoxy)-pyridine fumaric acid], the Ki in assay [1] is 102 nM; in assay [2], more than 10000 nM.
Taken in the same sequence, the figures for `Fc1ccc(Oc2c(F)cccc2OC[C@H]2CCCNC2)cc1` [Example 98, (S)-3-[3-fluoro-2-(4-fluoro-phenoxy)-phenoxymethyl]-piperidine trifluoroacetic acid] were 1 nM and 1300 nM.
Taken in the same sequence, the figures for `CCOc1cccc(F)c1OC[C@H]1CCCNC1` [Example 105, (S)-3-(2-ethoxy-6-fluoro-phenoxymethyl)-piperidine fumaric acid] were 32 nM and 2800 nM.
For `Cc1ccc(OC[C@H]2CCCNC2)c(Oc2ccc(F)cc2Cl)n1` [Example 24, (S)-2-(2-chloro-4-fluoro-phenoxy)-6-methyl-3-(piperidin-3-ylmethoxy)-pyridine fumaric acid], in that order: 2.7 nM and 160 nM.
On to `Cc1ccc(OC[C@H]2CCCNC2)c(Oc2ccc(F)cc2C)n1` [Example 1, (S)-2-(4-fluoro-2-methyl-phenoxy)-6-methyl-3-(piperidin-3-ylmethoxy)-pyridine fumaric acid], for which the Ki in assay [1] turned out to be 28 nM; in assay [2], 580 nM.
As to `c1cnc(OC2CCCCC2)c(OC[C@H]2CCCNC2)c1` [Example 81, (S)-2-cyclohexyloxy-3-(piperidin-3-ylmethoxy)-pyridine fumaric acid], the Ki in assay [1] came out at 84 nM; in assay [2] it was 6130 nM.
Taken in the same sequence, the figures for `Cc1ccc(OC[C@H]2CCCNC2)c(Oc2ccccc2OC(C)C)n1` [Example 10, (S)-2-[2-(1-methyl-ethoxy)-phenoxy]-6-methyl-3-(piperidin-3-ylmethoxy)-pyridine fumaric acid] were 10.1 nM and 2600 nM.
On to `COc1ccc(F)cc1O[C@@H](c1ccccn1)[C@H]1CCCNC1` [Example 117, 2-[{(R)-5-fluoro-2-methoxy-phenoxy}-(S)-piperidin-3-yl-methyl]-pyridine fumaric acid], for which the results for the Ki in assay [1] and in assay [2] were 16 nM and 4600 nM, respectively.
With `Cc1ccc(OC[C@H]2CCCNC2)c(Oc2c(C)cccc2C)n1` [Example 2, (S)-2-(2,6-dimethyl-phenoxy)-6-methyl-3-(piperidin-3-ylmethoxy)-pyridine fumaric acid], the values for the Ki in assay [1] and in assay [2] were 17 nM and not below 10000 nM, respectively.
Consider `COc1ccc(Oc2ncccc2OC[C@H]2CCCNC2)cc1` [Example 51, (S)-2-(4-methoxy-phenoxy)-3-(piperidin-3-ylmethoxy)-pyridine fumaric acid], for which the figures for the Ki in assay [1] and in assay [2] were 27 nM and 7300 nM, respectively.
Taken in the same sequence, the figures for `CCOc1ncccc1OC(c1ccccc1)C1CCCNC1` (single isomer, unassigned; stereoisomer a) [Example 90, 2-ethoxy-3-[((R or S)-phenyl)-((S)-piperidin-3-yl)-methoxy]-pyridine fumaric acid, stereoisomer A] were 2 nM and 71 nM.
As to `Cc1ccc(OC[C@H]2CCCNC2)c(Oc2cccc3c2CCCC3)n1` [Example 19, (S)-6-methyl-3-(piperidin-3-ylmethoxy)-2-(5,6,7,8-tetrahydronaphthalen-1-yloxy)-pyridine fumaric acid], the Ki was determined as 86 nM in assay [1] and 1900 nM in assay [2].
As to `Cc1ccc(OC[C@H]2CCCNC2)c(Oc2ccc3c(c2)CCC3)n1` [Example 18, (S)-2-(2,3-dihydro-1H-inden-5-yloxy)-6-methyl-3-(piperidin-3-ylmethoxy)pyridine fumaric acid], the Ki in assay [1] is 54 nM; in assay [2], 620 nM.
Consider `CCOc1ncccc1OC[C@H]1CCCNC1` [Example 79, (S)-2-ethoxy-3-(piperidin-3-ylmethoxy)-pyridine fumaric acid], for which the Ki in assay [1] was 108 nM; in assay [2], more than 10000 nM.
As to `CCOc1ccccc1O[C@@H](c1ccccn1)[C@H]1CCCNC1` [Example 114, 2-[{(R)-2-ethoxy-phenoxy}-(S)-piperidin-3-yl-methyl]-pyridine fumaric acid], the Ki in assay [1] was found to be 7 nM; in assay [2] it was 3700 nM.
Taken in the same sequence, the figures for `Cc1ccc(OC[C@H]2CCCNC2)c(Oc2ccc(F)cc2)n1` [Example 41, (S)-2-(4-fluoro-phenoxy)-6-methyl-3-(piperidin-3-ylmethoxy)-pyridine fumaric acid] were 3.8 nM and 210 nM.
Taken in the same sequence, the figures for `Cc1ccc(OC[C@H]2CCCNC2)c(Oc2ccc(Cl)cc2)n1` [Example 13, (S)-2-(4-chloro-phenoxy)-6-methyl-3-(piperidin-3-ylmethoxy)-pyridine fumaric acid] were 8.9 nM and 140 nM.
For `CC(C)COc1ncccc1OC(c1ccccc1)[C@H]1CCCNC1` (single isomer, unassigned; stereoisomer a) [Example 92, 2-isobutoxy-3-[((R or S)-phenyl)-((S)-piperidin-3-yl)-methoxy]-pyridine fumaric acid, stereoisomer A], the Ki in assay [1] was determined as 29 nM; in assay [2], 140 nM.
`CCOc1ccccc1O[C@@H](C)[C@H]1CCCNC1` [Example 107, (S)-3-[(S)-1-(2-ethoxy-phenoxy)-ethyl]-piperidine]: the Ki was found to be 7 nM in assay [1] and 2700 nM in assay [2].
Taken in the same sequence, the figures for `C[C@H](Oc1ccccc1OCC1CCC1)[C@H]1CCCNC1` [Example 110, (S)-3-[(S)-1-(2-cyclobutylmethoxy-phenoxy)-ethyl]-piperidine oxalic acid] were 3 nM and 420 nM.
For the molecule `COc1ccccc1Oc1nc(C)ccc1OC[C@H]1CCCNC1` [Example 3, (S)-2-(2-methoxy-phenoxy)-6-methyl-3-(piperidin-3-ylmethoxy)-pyridine fumaric acid], the inhibition constant (Ki) in assay [1] stood at 2.2 nM; in assay [2], 1200 nM.
For `COc1cc(F)ccc1Oc1cc(C(F)(F)F)ccc1OC[C@H]1CCCNC1` [Example 37, (S)-3-[2-(4-fluoro-2-methoxy-phenoxy)-4-trifluoromethyl-phenoxymethyl]-piperidine fumaric acid], in that order: 77 nM and 22 nM.
As to `Fc1ccc(Oc2cc(F)ccc2OC[C@H]2CCCNC2)c(Cl)c1` [Example 39, (S)-3-[2-(2-chloro-4-fluoro-phenoxy)-4-fluoro-phenoxymethyl]-piperidine fumaric acid], the Ki amounted to 802 nM in assay [1] and 110 nM in assay [2].
Regarding `COc1ccc(OC[C@H]2CCCNC2)c(Oc2ccc(Cl)cc2OC)c1` [Example 32, (S)-3-[2-(4-chloro-2-methoxy-phenoxy)-4-methoxy-phenoxymethyl]-piperidine fumaric acid], the Ki was determined as 46 nM in assay [1] and 120 nM in assay [2].
Turning to `Fc1ccc(Oc2ncccc2OC(c2ccccc2)C2CCCNC2)cc1` (single isomer, unassigned; stereoisomer a) [Example 88, 2-(4-fluoro-phenoxy)-3-[((R or S)-phenyl)-((S)-piperidin-3-yl)-methoxy]-pyridine fumaric acid, stereoisomer A], the Ki in assay [1] turned out to be 4 nM; in assay [2], 150 nM.
With `CCOc1ncccc1OC(c1ccccc1)C1CCCNC1` (single isomer, unassigned; stereoisomer b) [Example 91, 2-ethoxy-3-[((R or S)-phenyl)-((S)-piperidin-3-yl)-methoxy]-pyridine fumaric acid, stereoisomer B], the figures for the Ki in assay [1] and in assay [2] were 99 nM and 430 nM, respectively.
Taken in the same sequence, the figures for `Fc1ccc(Oc2ncccc2OC[C@H]2CCCNC2)c(F)c1` [Example 54, (S)-2-(2,4-difluoro-phenoxy)-3-(piperidin-3-ylmethoxy)-pyridine fumaric acid] were 3 nM and 2700 nM.
In the case of `Cc1ccc(OC[C@H]2CCCNC2)c(Oc2c(Cl)cc(F)cc2Cl)n1` [Example 48, (S)-2-(2,6-dichloro-4-fluoro-phenoxy)-6-methyl-3-(piperidin-3-ylmethoxy)-pyridine hydrochloride], the values for the Ki in assay [1] and in assay [2] were 61 nM and more than 9200 nM, respectively.
